Two compounds from PMC12652692, “Synthesis and In Vitro Anticancer Evaluation of Novel Phosphonium Derivatives of Chrysin” (International Journal of Molecular Sciences, 2025) can be followed below.

What all share (assay): NCI60 five-dose screen
Assay type in all cases: cell-based

The subject of one test is RXF 393. The settings on record: Homo sapiens; RXF 393, Renal Cancer. The method, boiled down: (§1)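 Five-concentration 48 h exposure in RPMI 1640/5% FBS medium at 37 °C, with cells seeded 24 h beforehand. Read-out: TCA fixation and SRB absorbance at 515 nm. GI50 marks 50% reduction of net protein increase.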
The subject of a further test is MCF7. The settings on record: Homo sapiens; MCF7, Breast Cancer. The method, boiled down: as §1
For a further test, the system named is HCC-2998. The settings on record: Homo sapiens; HCC-2998, Colon Cancer. The method, boiled down:
as §1

A further test has as its system HCT-15. The settings on record: Homo sapiens; HCT-15, Colon Cancer. Put shortly:
as §1

A further test concerns NCI-H522. As to conditions: Homo sapiens; NCI-H522, Non-small-Cell Lung Cancer. The method, boiled down:
as §1

The subject of a further test is SR. The settings on record: Homo sapiens, Leukemia. Put shortly:
as §1

The next test relates to U251. The settings on record: Homo sapiens, U-251; U251, CNS Cancer. The method, boiled down: as §1
The subject of another test is SN12C. The settings on record: Homo sapiens, Renal Cancer. The method, boiled down: as §1
Another test has as its system SF-268. The settings on record: Homo sapiens; SF-268, CNS Cancer. Put shortly:
as §1

For a further test, the system named is SNB-75. As to conditions: Homo sapiens; SNB-75, CNS Cancer. The method, boiled down: as §1
The next test concerns HOP-62. As to conditions: Homo sapiens; HOP-62, Non-small-Cell Lung Cancer. Put shortly:
as §1

Another test relates to MDA-MB-468. As to conditions: Homo sapiens; MDA-MB-468, Breast Cancer. The method, boiled down:
as §1

In the next test the test system is CAKI-1. The settings on record: Homo sapiens; CAKI-1, Renal Cancer. The method, boiled down:
as §1

Another test deals with RPMI-8226. As to conditions: Homo sapiens; RPMI-8226, Leukemia. The method, boiled down:
as §1

The next test has as its system HCT-116. As to conditions: Homo sapiens; HCT-116, Colon Cancer. Put shortly: as §1
The test system of the next test is CCRF-CEM. The settings on record: Homo sapiens, Leukemia. Put shortly:
as §1

The next test deals with EKVX. As to conditions: Homo sapiens, Non-small-Cell Lung Cancer. The method, boiled down: as §1
The test system of the next test is NCI-H322M. As to conditions: Homo sapiens, Non-small-Cell Lung Cancer. Put shortly:
as §1

In the next test the test system is OVCAR-8. The settings on record: Homo sapiens; OVCAR-8, Ovarian Cancer. The method, boiled down:
as §1

For another test, the system named is UACC-62. The settings on record: Homo sapiens; UACC-62, Melanoma. The method, boiled down:
as §1

The next test has as its system MALME-3M. As to conditions: Homo sapiens, Melanoma. Put shortly: as §1
For a further test, the system named is HT29. The settings on record: Homo sapiens, HT-29; HT29, Colon Cancer. The method, boiled down:
as §1

With `COc1c(C)cc([P+](CCCCOc2cc(O)c3c(=O)cc(-c4ccccc4)oc3c2)(c2cc(C)c(OC)c(C)c2)c2cc(C)c(OC)c(C)c2)cc1C` [3f], the 50% growth inhibitory concentration (GI50) is 191 nM with RXF 393; 260 nM with MCF7; 297 nM in the test with HCC-2998; 345 nM in the test with HCT-15; 221 nM with NCI-H522; 162 nM in the test with SR. Also, the 50% growth inhibitory concentration (GI50) was determined as 67 nM in the test with U251; 313 nM in the test on SN12C; 525 nM in the test on SF-268; 213 nM in the test with SNB-75; 311 nM with HOP-62; 64 nM in the test with MDA-MB-468. Moreover, the GI50 with CAKI-1 came out at 275 nM; with RPMI-8226, 110 nM; with HCT-116, 256 nM; in the test with CCRF-CEM, 103 nM; with EKVX, 309 nM; in the test with NCI-H322M, 432 nM. The GI50 in the test with OVCAR-8 amounted to 350 nM; in the test on UACC-62, 312 nM; in the test on MALME-3M it was 310 nM; in the test on HT29 it was 646 nM.
Take `O=c1cc(-c2ccccc2)oc2cc(OCCCC[P+](c3ccccc3)(c3ccccc3)c3ccccn3)cc(O)c12` [3h]: the GI50 in the test on RXF 393 was 608 nM; in the test on MCF7, 396 nM; with HCC-2998, 445 nM; in the test with HCT-15, 1580 nM; with NCI-H522, 320 nM; with SR, 214 nM. In addition, the GI50 came out at 335 nM in the test on U251; 510 nM in the test on SN12C; 760 nM with SF-268; 572 nM with SNB-75; 1520 nM in the test on HOP-62; 176 nM with MDA-MB-468. The GI50 in the test with CAKI-1 was found to be 1540 nM; in the test with RPMI-8226, 248 nM; in the test on HCT-116 it was 650 nM; with CCRF-CEM, 334 nM; in the test on EKVX, 1120 nM; in the test on NCI-H322M, 2040 nM. For the same compound, the GI50 in the test with OVCAR-8 was found to be 494 nM; in the test with UACC-62, 549 nM; with MALME-3M, 594 nM; with HT29 it was 1750 nM.

In general, GI50 refers to the concentration that inhibits growth by half.
